# Measurements published in patent US6914049B2, “IGF-binding protein-derived peptide or small molecule” (Bioexpertise, LLC, priority 2001, dated 2005).
# Where no end group is shown, it is not given here.
# Assays:
# [1] = system: MA-16C mammary adenocarcinoma tumors; assay: MA-16C mammary adenocarcinoma tumor implants; format: in vivo, female C3H mice; details: DOX study
# Procedure: Fragments of MA-16C mammary adenocarcinoma tumors were implanted subcutaneously into female C3H mice (8-11 animals per group). The animals were treated with vehicle alone, IGFBP-3 (4 mg/kg/day for 21 days by subcutaneous injection), doxorubicin (2 mg/kg on days 1 and 8 by intravenous injection), or IGFBP-3 plus doxorubicin. A separate study was performed where the animals were treated with vehicle alone, 5-fluorouracil (10 mg/kg on days 1-5 by intraperitoneal injection), or IGFBP-3 plus 5-fluorouracil. Tumor size was measured at day 18, and the mice were sacrificed at day 21, and the implanted tumors were removed for determination of caspase-3 activity (a marker of apoptosis-only performed for DOX groups).
# HEK293 cells [2] = assay: Nuclear translocation of MBD-GFP32 after endocytosis inhibitors; format: cell-based, human; details: inhibitor 10 μg/ml one hour; 500 ng/ml MBD-GFP32, twenty minutes; FIG. 19
# Procedure: HEK293 cells were pre-incubated with inhibitors nystatin (inhibitor of caveolin pathway) or chlorpromazine (inhibitor of clathrin pathway) for one hour at 10 μg/ml. […] Extracts were assayed by anti-GFP ELISA.
# [3] = Metal-binding of peptides to Ni-NTA resin; details: percentage of loaded peptide bound to Ni-NTA resin; 1-1.5 mg loaded
# Procedure: (§1) Apoptotic activity is expressed in arbitrary caspase-3 units normalized to MBD2 on a molar basis (MBD2 activity was defined as 100 units (avg. of 3 experiments); “nd” indicates “not done”; “ps” indicates phosphoserine. Metal-binding is expressed as a percentage of loaded peptide bound to a Ni-NTA resin; approximately 1-1.5 mg of peptide were loaded on the column. Cell uptake was determined using genetic fusions to GFP as described in Example 9.
# HEK 293 cells [4] = assay: Co-apoptotic activity of MBD peptides and paclitaxel, caspase-3; format: cell-based, human; details: normalized to MBD2 = 100 on a molar basis; peptide 50 ng/ml, 0.3 ng/ml paclitaxel, 8 hours
# Procedure: Peptides (50 ng/ml) were added to 80% confluent HEK 293 cells grown in DMEM supplemented with 0.3 ng/ml paclitaxel concurrent with peptide. Caspase-3 activity was measured in cell extracts 8 hours post-addition.
# as §1
# HEK293 cells [5] = assay: Caspase-3 apoptosis assay on nutritionally stressed HEK293 cells (Examples 1-2); format: cell-based, human
# Procedure: Human embryonal kidney 293 (HEK293) cells were grown in Dulbecco's Modified Eagle Medium (D-MEM) supplemented with fetal calf serum at 2%, 4%, 6%, or 8%. When the cells reached 80-85% confluency (cell titer approximately 2.1×10^6 cells per plate), 5 μg of IGFBP-3 or buffer control was added to each plate. The cells were incubated at 37° C. overnight. The next day the medium was removed and the cells were rinsed with trypsin-EDTA (0.25% trypsin, 1 mM EDTA) plus 1× phosphate buffered saline. The cells were centrifuged and the supernatant was removed. ApoAlert caspase-3 assay kit from Clontech Inc (Palo Alto, Calif.) was used to measure apoptosis. The cells were resuspended in 50 μl of chilled cell lysis buffer and incubated on ice for 10 minutes. The resulting cell, lysates were centrifuged at 14000 rpm in a Beckman microcentrifuge for 3 minutes at 4 C. The supernatant was transferred to new tubes and 50 μl of 2× reaction buffer/DTT plus 5 μl of 1 mM caspase-3 substrate was added to each tube. After incubating at 37 C. for 1 hour in a water bath, the samples were read at 405 nm in a microplate reader.
# Peptides derived from IGFBP-3 were tested for pro-apoptotic activity essentially as described in Example 1.
# The peptides tested are described in Table 1 (peptides marked with an asterisk include a hexahistidine tag).
# [6] = Binding of short peptides to Ni-His-Bind column, imidazole elution
# Procedure: We further tested the ability of IGFBP-3-derived sub-domains and peptides to bind metal. As shown in Example 5, below, a defined fragment of IGFBP-3 generated in vivo can be captured on IMAC. Two short peptides were passed through a Ni-His-Bind column:
# Both peptides bound specifically to the column. Peptide 1 eluted with 60 mM imidazole, whereas higher concentrations of imidazole (1M) were necessary to elute Peptide 2.
# HEK293 cells [7] = assay: Nuclear translocation of biotinylated peptide/streptavidin-HRP conjugate; format: cell-based, human; details: approx. 90 Kd conjugate, 20 minutes; FIG. 24
# Procedure: Biotinylated MBD peptides MBD9, MBD20 ([…] (SEQ ID NO: 37): the MBD core 14mer is underlined, and the caveolin consensus binding sequence is bolded) or MBD21 ([…] (SEQ ID NO: 38): the MBD core 14mer is underlined, and the caveolin consensus binding sequence is bolded) were each mixed with streptavidin-horseradish peroxidase conjugate (3-6× molar excess of MBD peptide) and added to HEK293 cells. After 20 minutes, nuclear and cytoplasmic extracts were prepared as described in Example 20 and assayed for peroxidase activity.
# MA16C cells = assay: Sensitization to low dose doxorubicin, caspase-3; format: cell-based; details: doxorubicin 75 ng/ml, FIG. 16A
# Procedure: MA16C cells were cultured in the presence of MDB2 and a low dose of doxorubicin (75 ng/ml). Apoptosis was assayed using the caspase-3 assay as described in Example 1.
# HEK 293 cells [8] = assay: IGF-independence of apoptosis stimulation, caspase-3; format: cell-based, human
# Procedure: HEK 293 cells were cultured under stressed conditions (low serum or in the presence of paclitaxel) with and without IGFBP-3 (50 ng/ml) or MBD2 (50 ng/ml). Apoptosis was assayed using the caspase-3 assay as described in Example 1.
# MDA-MB-231 cells = assay: Sensitization to low dose paclitaxel, NMP levels; format: cell-based; details: paclitaxel 100 ng/ml, 50 ng/ml peptide, FIG. 16B
# Procedure: MDA-MB-231 cells were cultured in the presence of low dose paclitaxel (100 ng/ml) with and without MDB2 (50 ng/ml). Apoptosis was assayed by measuring NMP levels.
# [9] = system: HEK 293 cells transfected with dominant negative inserts; assay: Co-apoptotic activity in cells with blocked signal transduction; format: cell-based, human; details: AktDN, PTEN, ILKdn, rafDN inserts; with paclitaxel; FIG. 15
# Procedure: HEK 293 cells were transfected with pUSEamp, or pUSEamp carrying a Akt dominant negative (AktDN), PTEN, ILK dominant negative (ILKdn) or raf dominant negative (rafDN) insert (Upstate Biotechnologies). The cells were cultured as described in Example 10 (including paclitaxel), with or without MBD2.
# HEK 293 cells [10] = assay: Integrin dependence of pro-apoptotic activity, caspase-3; format: cell-based, human; details: with paclitaxel; FIG. 12A
# Procedure: HEK 293 cells were cultured as described in Example 10, including paclitaxel. Cells were incubated with MDB2 either alone or in combination with an anti-adhesion protein antibody. Antibodies were against integrin associated protein (LAP), fibronectin (Fn), transferrin receptor (TfnR), alpha 5 integrin, alpha 6 integrin, alpha v integrin, beta 1 integrin, and beta 5 integrin. Caspase-3 activity was assayed as described in Example 1.
# HEK293 cells [11] = assay: Co-apoptotic activity with paclitaxel in presence of plasma proteins; format: cell-based, human; details: 50 ng/ml, 0.3 ng/ml paclitaxel, eight hours
# Procedure: Co-apoptotic activity of MBD peptides or IGFBP-3 with paclitaxel was tested in the presence or absence of two plasma proteins; fibronectin and fibrinogen. MBD peptides or IGFBP-3, (50 ng/ml), 0.3 ng/ml paclitaxel, and plasma proteins (200 ng/ml) were added to 80% confluent HEK293 cells grown in DMEM essentially as described in Example 8. Caspase-3 was measured after an eight hour incubation.
# Apoptotic activity was calculated in arbitrary caspase-3 units normalized to MBD2 (MBD2 activity was defined as 100 units) Results are summarized in Table 4 (average of 3 experiments).
compound,measurement,setting,value
"COc1cccc2c1C(=O)c1c(O)c3c(c(O)c1C2=O)C[C@@](O)(C(=O)CO)C[C@@H]3O[C@H]1C[C@H](N)[C@H](O)[C@H](C)O1 [DOX, doxorubicin, reference compound]",Tumor Weight,"[1]; IGFBP-3 4 mg/kg/day sc 21 days, doxorubicin 2 mg/kg iv days 1 and 8",1966 + 677 mg
same,Lung Metastases,[1]; animals with metastases/animals,0/12
same,Caspase-3,[1]; tumors removed at day 21,7.88 ± 6.27
CN(C)CCCN1c2ccccc2Sc2ccc(Cl)cc21 [chlorpromazine],effect on nuclear translocation of MBD peptides,HEK293 cells [2],inhibit nuclear translocation of MBD peptides
C[C@@H]1[C@H](O)[C@@H](C)/C=C/C=C/CC/C=C/C=C/C=C/C=C/C(O[C@H]2O[C@H](C)[C@@H](O)[C@H](N)[C@@H]2O)CC2O[C@](O)(CC(O)C(O)CCC(O)CC(O)CC(O)CC(=O)O[C@H]1C)CC(O)C2C(=O)O (some centres unmarked) [nystatin],effect on nuclear translocation of MBD peptides,HEK293 cells [2],inhibit nuclear translocation of MBD peptides
CRPSKGRKRGFC [MBD4],Metal-binding,[3],92 percentage
same,Apoptotic Activity,HEK 293 cells [4],10-15 arbitrary caspase-3 units
CRPSKGRKRGFCW [MBD12],Apoptotic Activity,HEK 293 cells [4],10-40 arbitrary caspase-3 units
DKKGFYKKKQCRPSKGRKRGFCW [MBD1],pro-apoptotic activity,HEK293 cells [5]; FIG. 4A/4B,dramatic lowering of pro-apoptotic activity
same,Metal-binding,[3],22 percentage
same,imidazole concentration that elutes the peptide,[6],60 mM
same,Apoptotic Activity,HEK 293 cells [4],10-15 arbitrary caspase-3 units
GFYKKKQCRPSKGRKRGFCW [MBD5],Metal-binding,[3],95 percentage
same,Apoptotic Activity,HEK 293 cells [4],10-15 arbitrary caspase-3 units
KKEKDIMKKTIQCRPSKGRKRGFCWNGR [MBD10],Apoptotic Activity,HEK 293 cells [4],127 arbitrary caspase-3 units
"KKGFYKKKQCRPSKGRKRGFCWAVDKYG (cysteine pairing not given here; also: biotinylated, position not given here) [MBD21, tested biotinylated with streptavidin-HRP]",nuclear mobilization of streptavidin-HRP conjugate compared with MBD9,HEK293 cells [7],far more efficiently
KKGFYKKKQCRPSKGRKRGFCWNGRK [MBD9],Metal-binding,[3],45 percentage
same,Apoptotic Activity,HEK 293 cells [4],149 arbitrary caspase-3 units
QCKMSLNGQRGECW [BP2n1s],Apoptotic Activity,HEK 293 cells [4],<5 arbitrary caspase-3 units
QCKPSRGRKRGICW [BP5n1s],Metal-binding,[3],28 percentage
same,Apoptotic Activity,HEK 293 cells [4],<5 arbitrary caspase-3 units
QCRPSEGGKRGFCW [MBD3],Metal-binding,[3],100 percentage
same,Apoptotic Activity,HEK 293 cells [4],<5 arbitrary caspase-3 units
QCRPSKGRKRGFC [MBD13],Apoptotic Activity,HEK 293 cells [4],10-40 arbitrary caspase-3 units
QCRPSKGRKRGFCW [MBD2],sensitization to doxorubicin,MA16C cells,sensitizes MA16C mammary adenocarcinoma cells to low doses of doxorubicin
same,IGF dependence of pro-apoptotic activity,"HEK 293 cells [8]; 0.3 ng/ml paclitaxel, alone or with Y60L-IGF-I, FIG. 11C",independent of the presence of IGF
same,pro-apoptotic activity under stressed conditions,"HEK 293 cells [8]; low serum or paclitaxel, 50 ng/ml, FIGS. 11A, 11B",nearly identical
same,sensitization to paclitaxel,MDA-MB-231 cells,sensitizes MDA-MB-231 cells to low doses of paclitaxel
same,pro-apoptotic activity in cells with blocked pathways,[9],"inhibited in cells in which the PI3K/ILK kinase signal transduction pathway is blocked, but not in cells where the MAPK signal transduction pathway is blocked"
same,pro-apoptotic activity relative to intact IGFBP-3 or a longer peptide,"HEK293 cells [5]; on a weight basis, FIG. 4B",3-4 ×
same,Metal-binding,[3],66 percentage
same,pro-apoptotic activity with anti-adhesion protein antibodies,HEK 293 cells [10],inhibited by antibodies against integrins and integrin-associated proteins
same,binding to the column,[6],binds metal more tightly
same,imidazole concentration necessary to elute the peptide,[6],1 M
same,co-apoptotic activity with Fibrinogen,HEK293 cells [11]; Fibrinogen 200 ng/ml,67.5 arbitrary caspase-3 units
same,co-apoptotic activity with Fibronectin,HEK293 cells [11]; Fibronectin 200 ng/ml,98.3 arbitrary caspase-3 units
same,"co-apoptotic activity, plasma protein none",HEK293 cells [11]; no plasma protein,100.0 arbitrary caspase-3 units
same,Apoptotic Activity,HEK 293 cells [4],100 arbitrary caspase-3 units
"QCRPSKGRKRGFCWAVDKYG (cysteine pairing not given here; also: biotinylated, position not given here) [MBD20, tested biotinylated with streptavidin-HRP]",nuclear mobilization of streptavidin-HRP conjugate compared with MBD9,HEK293 cells [7],far more efficiently
QCRPSKGRKRGFCWNGR [MBD7],Metal-binding,[3],11 percentage
same,Apoptotic Activity,HEK 293 cells [4],89 arbitrary caspase-3 units
